{
  "source": "paper PMC6385087",
  "about": "“New Multitarget Hybrids Bearing Tacrine and Phenylbenzothiazole Motifs as Potential Drug Candidates for Alzheimer’s Disease” (Molecules, 2019)",
  "key": {"AChE from electric eel": {"target": "T1, AChE from electric eel (Electrophorus electricus, UniProt O42275)", "T1 construct": "commercially available enzyme AChE 500 U (extracted from electrophorus electricus); purchased type VI-S; host or cells: extracted from electric eel", "T1 sequence (O42275 24-633)": "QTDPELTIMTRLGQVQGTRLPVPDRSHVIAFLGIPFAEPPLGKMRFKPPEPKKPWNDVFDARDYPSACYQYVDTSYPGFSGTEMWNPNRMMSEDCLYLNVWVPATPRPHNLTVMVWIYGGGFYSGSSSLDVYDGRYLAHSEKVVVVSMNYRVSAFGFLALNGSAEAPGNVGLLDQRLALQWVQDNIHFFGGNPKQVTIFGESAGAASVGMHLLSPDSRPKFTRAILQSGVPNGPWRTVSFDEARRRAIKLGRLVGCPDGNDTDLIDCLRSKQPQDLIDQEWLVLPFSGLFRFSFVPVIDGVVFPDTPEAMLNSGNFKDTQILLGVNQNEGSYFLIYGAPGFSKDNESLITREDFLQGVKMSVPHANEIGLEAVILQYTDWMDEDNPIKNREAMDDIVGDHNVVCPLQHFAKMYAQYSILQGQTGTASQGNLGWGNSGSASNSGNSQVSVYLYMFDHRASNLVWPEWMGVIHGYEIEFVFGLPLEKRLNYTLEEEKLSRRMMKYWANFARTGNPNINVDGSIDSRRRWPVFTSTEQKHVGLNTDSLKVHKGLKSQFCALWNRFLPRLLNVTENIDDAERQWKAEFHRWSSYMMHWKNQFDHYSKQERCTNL", "assay": "biochemical", "details": "means of two experiments, read-out: Inhibition of AChE (IC50)", "procedure": "The analytical grade reagents were purchased from Sigma-Aldrich (St. Louis, MO, USA) and Acros (Thermo Fisher Scientific, Geel, Belgium) and were used without any further purification. The organic solvents were dried and distilled according to standard methods described in literature. […] The Proton and Carbon-13 NMR were recorded either on Bruker AVANCE III-300 (300 MHz and 75.5 MHz) or Bruker AVANCE III-400 (400 MHz and 100.5 MHz) NMR spectrometers (Billerica, MA, USA) at 25 °C using peaks of solvents as internal standard. The chemical shift values of protons or carbons were measured on a δ scale and the coupling constant values (J) were determined in Hertz. In the NMR representation, abbreviations are mentioned as: singlet represented by s, doublet represented by d, triplet represented by t, multiplet represented by m, double doublet represented by dd, and broad singlet represented by brs. The Leica Galen III hot stage apparatus (Leica Microsystems, Wetzlar, Germany) was used for measuring the melting points of compounds. […] The AChE inhibitory activity was measured in a 1 cm path length quartz cell through a Perkin Elmer Lambda 35 spectrophotometer equipped with a temperature programmer PTP1+1 Peltier System (T = 25.0 ± 0.1 °C) (Waltham, MA, USA). Electrospray ionization-mass (ESI-MS) measurements were carried out on a LCQ Fleet mass spectrometer (Thermo Scientific, S. Jose, CA, USA) operated in the ESI positive and negative ion modes.\nModified Ellman’s method was used as described previously for the determination of AChE activity. The AChE stock solution was prepared by dissolving commercially available enzyme AChE 500 U (extracted from electrophorus electricus) in 10 mL of TRIS buffer (50 mM, pH 8). HEPES buffer was used for the dilution of the enzyme to give the final AChE concentration. The assay solution consisted of 374 μL of 4-(2-hydroxyethyl)-1-piperazineethanesulfonic acid (Hepes) buffer (50 mM, pH 8.0), 476 μL of 3 mM bis(3-carboxy-4-nitrophenyl)disulfide (DTNB), 25 μL of AChE (type VI-S, from electric eel) stock solution, a variable volume (10–50 μL) of the compound’s stock solution (1 mg/mL of MeOH), and the necessary amount of methanol to attain the same volume of sample mixture (0.925 mL) in a 1 mL cuvette. Samples were left to react for 15 min and then the reaction was monitored at wavelength of 405 nm for 5 min, after adding 75 μL of 16 mM acetylthiocholine iodide (AChI) solution. Assays were run with a blank containing all the components except AChE, which was replaced by HEPES buffer. The velocities of the reaction were calculated as well as the enzyme activity. A control reaction was carried out using the sample solvent (methanol) in the absence of any tested compound, and it was considered as 100% activity. […] The inhibition curves were obtained by plotting the percentage of enzymatic inhibition versus inhibitor concentration and a calibration curve was obtained from which the linear regression parameters were calculated."}, "SH-SY5Y cells": {"tested_on": "SH-SY5Y cells", "assay": "Dose-response screening for non-toxic concentration, MTT reduction", "assay_type": "cell-based", "details": "dose-response screening from 0.2 μM to 5 μM, 25 h", "procedure": "The neuroprotective effect of TAC-PhBTA conjugates was evaluated using SH-SY5Y cells treated with Aβ1–42 peptides or ascorbate/iron. For each compound, a dose-response curve was performed to select a non-toxic concentration in order to analyze its neuroprotective effect (Figure 3).\nSH-SY5Y human neuroblastoma cell line (ATCC-CRL-2266) grown in Dulbecco’s modified Eagle’s medium (DMEM) obtained from Gibco-Invitrogen (Life Technologies Ltd., Liverpool, UK) with 10% heat inactivated fetal calf serum, containing 50 U/mL penicillin, and 50 μg/mL streptomycin, under a humidified atmosphere of 95% air-5% CO2 at 37 °C. Cells were plated at 0.12 × 10^6 cells/mL for cell viability assay. […]. As a result we selected a 2.5 μM final concentration for compound 16; 0.5 μM final concentration for compound 17; 0.2 μM final concentration for compounds 14 and 15; and a 1 μM final concentration for compounds 19 and 18. […] The compounds were added to the cell media 1 h before the incubation with Aβ1–42 or ferrous sulfate/L-ascorbic acid. Aβ1–42 or ferrous sulfate/L-ascorbic acid where incubated alone or with the compound for an additional 24 h. Aβ1–42 was prepared as 276.9 μM stock in sterile water and added to the medium at 1 μM final concentration. Ferrous sulfate was freshly prepared as 0.36 M stock in water and added to the medium at 500 μM final concentration. L-Ascorbic Acid was freshly prepared as 80 mM stock in water and added to the medium at 5 mM final concentration. Aβ1–42 was purchased from Bachem (Torrance, CA, USA) and ferrous sulfate and L-ascorbic acid from Sigma Chemical Co (St. Louis, MO, USA).\nCell viability was determined by a MTT (3-(4,5-dimethylthiazol-2-yl)-2,5-diphenyltetrazolium bromide) reduction test. In viable cells, the enzyme succinate dehydrogenase metabolizes MTT into formazan that absorbs light at 570 nm. Following the cell treatment protocol the medium was aspirated and 0.5 mL MTT (0.5 mg/mL) was added to each well. The plate was then incubated at 37 °C for 1 h 30 min protected from light. At the end of the incubation period the formazan precipitates were solubilized with 0.5 mL of acidic isopropanol (0.04 M HCl/isopropanol). The absorbance was measured at 570 nm. Cell reduction ability was expressed as a percentage of untreated control cells."}, "Aβ1–42 self-aggregation": {"target": "T2, Aβ1–42 self-aggregation (Homo sapiens, UniProt P05067)", "T2 construct": "Commercially available Aβ1-42 peptide was obtained from Aldrich; purchased Aldrich", "T2 sequence (P05067 672-713 limits assumed)": "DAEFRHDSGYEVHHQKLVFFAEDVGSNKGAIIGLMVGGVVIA", "assay": "Aβ1–42 self-aggregation inhibition, thioflavin T fluorescence assay", "assay_type": "biochemical", "details": "for inhibition at 40 µM: read-out: Inhibition of Aβ-self-aggregation (%)", "procedure": "[…]. Since the compounds of this series presented some solubility problems in methanol, the assays were performed with ligands at concentrations of 40 µM, i.e., half of the concentration usually used (80 µM) in these assays. […]. […] So, it appears that introduction of a chloro substituent in TAC and/or a hydroxyl group in the carbon linker are not well suited for the interaction with β-sheet secondary structure of Aβ aggregates. […].\nCommercially available Aβ1-42 peptide was obtained from Aldrich and stored at −20 °C. It was treated with 1,1,1,3,3,3-hexafluoropropan-2-ol (HFIP) to avoid self-aggregation and reserved. HFIP pre-treated Aβ1–42 samples were re-dissolved in CH3CN/Na2CO3 (300 µM)/NaOH (250 µM) (48.3:48.3:4.3, v/v/v) solvent mixture in order to have a stable stock solution; this solution (500 µM) was further diluted in phosphate buffer (0.215 M, pH 8.0) to obtain 40 µM solution. The ligand, which was previously dissolved in methanol, was further diluted in phosphate buffer to a final concentration of 40 µM. Aβ1–42 aggregation was determined by measuring the fluorescence emission of Thioflavin T dye, with a Cary Eclipse Varian fluorimeter (Molecular Devices, San José, CA, USA).\nAfter incubation for 24 h at 37 °C, without stirring, the samples were added to a 96-well plate (BD Falcon) with 180 µL of 5 µM ThT in 50 mM glycine-NaOH (pH 8.5) buffer. Blank samples were prepared for each concentration in a similar way, devoid of peptide. As for the control, a sample of the peptide was incubated under identical conditions but without the inhibitor. After 5-min incubation with the dye, the ThT fluorescence was measured at the following wavelengths: 446 nm (excitation) and 486 nm (emission). The percent inhibition of the self-induced aggregation due to the presence of the test compound was calculated by Equation (2), in which IFi and IF0 corresponded to the fluorescence intensities, in the presence and the absence of the test compound, minus the fluorescence intensities due to the respective blanks. I% = 100 − (IFi/IF0 × 100)(2)\nThe reported values were obtained as the mean ± S.E.M. of two different experiments."}, "[1]": {"details": "self-mediated Aβ42 aggregation, ThT fluorescence, CL = 40 μM, means of two experiments"}},
  "note": "pIC50: −log10 of the molar value. Where two headings read alike, the source gives them in different places.",
  "data": [
    {"smiles": "COc1cc(-c2nc3ccccc3s2)ccc1OCC(=O)NCC(O)CNc1c2c(nc3ccccc13)CCCC2", "note": "(stereo not drawn) [compound 18, 2-(4-(Benzo[d]thiazol-2-yl)-2-methoxyphenoxy)-N-(2-hydroxy-3-((1,2,3,4-tetrahydroacridin-9-yl)amino)propyl)acetamide]", "values": [
      {"measurement": "pIC50", "setting": "AChE from electric eel", "value": 6.57},
      {"measurement": "Highest non-toxic concentration selected", "setting": "SH-SY5Y cells", "value": 1, "unit": "µM"},
      {"measurement": "Inhibition of Aβ-self-aggregation (%)", "setting": "Aβ1–42 self-aggregation; self-mediated Aβ42 aggregation, ThT fluorescence, CL = 40 μM, means of two experiments, 40 µM", "value": 31.1, "unit": "%"},
      {"measurement": "inhibition at 40 µM", "setting": "Aβ1–42 self-aggregation; [1]", "value": "~31", "unit": "%"}
    ]},
    {"smiles": "COc1cc(-c2nc3ccccc3s2)ccc1OCC(=O)NCCCNc1c2c(nc3cc(Cl)ccc13)CCCC2", "note": "[compound 17, 2-(4-(Benzo[d]thiazol-2-yl)-2-methoxyphenoxy)-N-(3-((6-chloro-1,2,3,4-tetrahydroacridin-9-yl)amino)propyl)acetamide]", "values": [
      {"measurement": "pIC50", "setting": "AChE from electric eel", "value": 6.89},
      {"measurement": "Highest non-toxic concentration selected", "setting": "SH-SY5Y cells", "value": 0.5, "unit": "µM"},
      {"measurement": "inhibition at 40 µM", "setting": "Aβ1–42 self-aggregation; [1]", "value": 32.5, "unit": "%"}
    ]},
    {"smiles": "Nc1c2c(nc3ccccc13)CCCC2", "note": "[TAC, tacrine]", "values": [
      {"measurement": "inhibition at 80 µM", "setting": "Aβ1–42 self-aggregation; read-out: Inhibition of Aβ self-aggregation (%)", "value": 11, "unit": "%"},
      {"measurement": "inhibition at 40 µM", "setting": "Aβ1–42 self-aggregation", "value": 11, "unit": "%"}
    ]},
    {"smiles": "COc1cc(-c2nc3ccccc3s2)ccc1OCC(=O)NCCNc1c2c(nc3ccccc13)CCCC2", "note": "[compound 14, 2-(4-(Benzo[d]thiazol-2-yl)-2-methoxyphenoxy)-N-(2-((1,2,3,4-tetrahydroacridin-9-yl)amino)ethyl)acetamide]", "values": [
      {"measurement": "pIC50", "setting": "AChE from electric eel", "value": 6.96},
      {"measurement": "Highest non-toxic concentration selected", "setting": "SH-SY5Y cells", "value": 0.2, "unit": "µM"},
      {"measurement": "inhibition at 40 µM", "setting": "Aβ1–42 self-aggregation; [1]", "value": 44.6, "unit": "%"}
    ]}
  ]
}
